{"source": "patent US20020187925A1", "about": "“Modulating the activity of hormones or their receptors - peptides, antibodies, vaccines and uses thereof” (priority 1996, published 2002)", "key": {"[1]": {"experiment": "Immunisation of growing lambs with antigen in oil", "type": "in vivo", "method": "When this antigen was injected three times into growing lambs with the preferred delivery vehicle (oil), anti-SRIF and anti-cholecystokinin antibodies were detectable at 84 days of age. By this time, the immunised lambs had grown an average of 20% more than non-immunised lambs."}, "[2]": {"experiment": "Example 22: pregnant pigs immunised twice in last trimester; anti-SRIF antibodies and piglet growth rates", "type": "in vivo", "conditions": "for absolute growth rates of the piglets: birth to weaning, non-immunised control 165; for anti-SRIF antibodies in colostrum and milk of the sow and in blood and gut scrapings of piglets: piglets at 3 days and 21 days of age, antigen in the preferred oil", "from_the_text": "The absolute growth rates of the piglets from birth to weaning were: […]"}, "[3]": {"experiment": "Example 23: weaning weight of piglets of immunised sows", "type": "in vivo, pigs", "conditions": "21 days of age; sows immunized twice in last trimester", "from_the_text": "Sows immunized twice in the last trimester of pregnancy with SEQ ID No 3 produced piglets which were on average 27% heavier at weaning (at 21 days of age) than the offsprings of sows immunised with SRIF 14 conjugate vaccine. The levels of anti-SRIF antibodies measured are given below: […]"}, "SRIF": {"tested_on": "SRIF", "experiment": "Example 23: levels of anti-SRIF antibodies in gut, plasma, milk", "type": "in vivo, pigs", "conditions": "for Gut IgA anti-SRIF antibodies / Gut IgG anti-SRIF antibodies / Plasma IgA anti-SRIF antibodies / Plasma IgG anti-SRIF antibodies: piglets", "from_the_text": "Sows immunized twice in the last trimester of pregnancy with SEQ ID No 3 produced piglets which were on average 27% heavier at weaning (at 21 days of age) than the offsprings of sows immunised with SRIF 14 conjugate vaccine. The levels of anti-SRIF antibodies measured are given below:\nSignificant quantities of antibodies to SRIF were detected in the plasma and gut scrapings of piglets sucking sows immunised with SRIF/BSA or SEQ ID NO:3 emulsified in the oil of the invention."}, "[4]": {"experiment": "Immunisation of male pigs from 12 weeks of age", "type": "in vivo", "from_the_text": "Male pigs immunised with this peptide three times from 12 weeks of age grew an average of […] faster than non-immunised pigs to 24 weeks of age, and the testicle size of the immunised pigs was approximately 50% the size of those of the non-immunised animals."}, "[5]": {"experiment": "Solubility in sterile saline", "type": "physicochemical", "conditions": "sterile physiological saline / sterile saline solutions"}, "[6]": {"experiment": "Growth of piglets suckling dams vaccinated in last trimester of pregnancy", "type": "in vivo, pigs", "conditions": "birth to weaning", "from_the_text": "Piglets suckling dams which had been vaccinated with this molecule in the last trimester of pregnancy grew an average of 40% faster from birth to weaning than did corresponding piglets which were suckling non-immunised dams."}, "[7]": {"experiment": "Example 16: pregnant gilts immunised with FEEDMIZA or SRIF-conjugate; liveweight gain, feed conversion", "type": "in vivo, pigs", "method": "This experiment was designed to measure the effects of vaccinating pregnant gilts with FEEDMIZA by the subcutaneous route during first pregnancy. Opportunity was taken to compare any response to FEEDMIZA with response to a SRIF-conjugate vaccine delivered in the same delivery vehicle as peptide No.1. For that comparison the quantity of antigen was standardised at 100 μg of SRIF in the SRIF-conjugate, and 100 μg of the FEEDMIZA antigen.\nTwenty four Landrace X Large White female hybrid gilts were selected, mated and held in conventional dry sow stalls. They were randomly assigned to 3 treatment groups, viz:\nThe gilts were immunised by subcutaneous injection of 3 ml of the relevant antigen at the neck-on the day of mating.\nThe animals were held in conventional single dry sow stalls. At 30 days of pregnancy the treatment groups were reduced to 5 confirmed pregnant animals per treatment group. Subsequent vaccinations were performed at weeks 6, 9 and 12 of pregnancy. Each gilt was fed 3 kg of feed (Breedmore sow ration, Barastoc, Melbourne) each day from mating until farrowing. Each animal was weighed at mating, and at intervals of 3 weeks until farrowing."}, "[8]": {"experiment": "Example 17: sows of Example 16 during lactation; liveweight loss", "type": "in vivo, pigs", "from_the_text": "This experiment was a continuation of the trial of Example 16. It sought to observe the rate of liveweight gain of piglets during the lactation period up to weaning for piglets whose dams were immunised during gestation with FEEDMIZA, or with a SRIF-conjugate vaccine, using piglets being reared by non-immunised dams as controls.\nSows from Example 16 continued to be reared without any further immunisations or manipulations, with the exception that;\na) daily feed offered was increased to 6 kg per head from farrowing to weaning 21 days later.\nb) 3 days after farrowing the number of piglets on each sow was reduced to 8 to ensure that each litter of pigs in the experiment was benefiting from the combined effects of the quantity of milk produced, and ingested any antibodies that might be in them, without confounding influences of varying litter sizes, social interactions, and competition for teats. Sows were weighed at weaning.\nPiglets were individually identified at birth, and were weighed at birth, and each 7 days until weaning at 21 days of age. All piglets received a routine oral dose of broad spectrum antibiotic (Tribrissen Piglet Suspension, Intervet, Melbourne) at three days of age, as well as an intramuscular supplemental iron injection Pignaemia, Intervet, Melbourne)\nWater was available ad libitum to sows and piglets at all times."}, "[9]": {"experiment": "Example 18: liveweights of piglets of immunised sows", "type": "in vivo, pigs", "from_the_text": "This experiment sought to study the effects pre-farrowing immunisation of sows with SRIF-conjugate vaccine, or FEEDMIZA vaccine on the subsequent patterns of liveweight gain of their sucking piglets to weaning at 3 weeks of age, and for the post-weaning period The experiment monitored the piglets which were the subject of the previous experiment.\nThe piglets (8 per litter) on each of the 5 sows in the treatment groups (non-immunised, SRIF-conjugate immunised and FEEDMZA-immunised) were individually eartagged for identification, and were weighed at birth, 7, 14, 21 days (the day of weaning) and 35 days of age (2 weeks post-weaning).\nDuring lactation the piglets had ready access to a creep area which was warmed by an infra-red lamp, water ad libitum and creep feed granules (Barastoc, Melbourne) for the period of 18-21 days of age. They had no access to their mothers feed during the period of lactation\nAt weaning each litter of piglets was placed in a flatdeck weaning cage with 50% of the floor being bedding area, and 50% woven wire mesh. The cage was provided with a small silo feeder containing the same creep/weaner feed which had been offered to the piglets for the 3 days prior to weaning. Feed and fresh drinking water were offered ad libitum."}}, "note": "Non-standard residues stand in square brackets, D forms with d. No end group written: not given here. NMeY = CN[C@@H](Cc1ccc(O)cc1)C(=O)O"}
{"substance": "A-Y-M-G-W-S-C-T-K-W-F (AYMGWSCTKWF) [SEQ ID NO:52]", "values": [{"measurement": "growth more than non-immunised lambs", "setting": "[1]; by 84 days of age", "value": 20, "unit": "%"}, {"measurement": "anti-SRIF and anti-cholecystokinin antibodies", "setting": "[1]; lambs injected three times in oil, at 84 days of age", "value": "detectable"}]}
{"substance": "C-F-W-K-T-C-S-G (CFWKTCSG; not fully specified (bridges); printed as C-F-W-K-T-C-S-G; cysteine pairing not given here) [SEQ ID NO:3]", "values": [{"measurement": "absolute growth rates of the piglets", "setting": "[2]", "value": 275, "unit": "g per day"}, {"measurement": "anti-SRIF antibodies in colostrum and milk of the sow and in blood and gut scrapings of piglets", "setting": "[2]", "value": "produced anti-SRIF antibodies"}, {"measurement": "piglets heavier at weaning than offspring of sows immunised with SRIF 14 conjugate vaccine", "setting": "[3]", "value": 27, "unit": "%"}, {"measurement": "Milk/colostrum IgA anti-SRIF antibodies", "setting": "SRIF; DAY 3", "value": "0.026 ± 0.028", "unit": "OD @ 405 nm"}, {"measurement": "Sow's milk IgG anti-SRIF antibodies", "setting": "SRIF; DAY 3", "value": "1.4 ± 0.162", "unit": "OD @ 405 nm"}, {"measurement": "Gut IgA anti-SRIF antibodies", "setting": "SRIF; DAY 3", "value": "0.12 ± 0.157", "unit": "OD @ 405 nm"}, {"measurement": "Gut IgG anti-SRIF antibodies", "setting": "SRIF; DAY 3", "value": "0.51 ± 0.21", "unit": "OD @ 405 nm"}, {"measurement": "Plasma IgA anti-SRIF antibodies", "setting": "SRIF; DAY 3", "value": "1.43 ± 0.217", "unit": "OD @ 405 nm"}, {"measurement": "Plasma IgG anti-SRIF antibodies", "setting": "SRIF; DAY 3", "value": "0.9 ± 0.13", "unit": "OD @ 405 nm"}, {"measurement": "Gut IgA anti-SRIF antibodies", "setting": "SRIF; DAY 21", "value": "0.10 ± 0.087", "unit": "OD @ 405 nm"}, {"measurement": "Gut IgG anti-SRIF antibodies", "setting": "SRIF; DAY 21", "value": "0.123 ± 0.09", "unit": "OD @ 405 nm"}, {"measurement": "Plasma IgA anti-SRIF antibodies", "setting": "SRIF; DAY 21", "value": "0.567 ± 0.21", "unit": "OD @ 405 nm"}, {"measurement": "Plasma IgG anti-SRIF antibodies", "setting": "SRIF; DAY 21", "value": "2.12 ± 0.23", "unit": "OD @ 405 nm"}]}
{"substance": "F-W-K-T-S-G-G (FWKTSGG) [SEQ ID NO:4]", "values": [{"measurement": "absolute growth rates of the piglets", "setting": "[2]", "value": 240, "unit": "g per day"}, {"measurement": "anti-SRIF antibodies in colostrum and milk of the sow and in blood and gut scrapings of piglets", "setting": "[2]", "value": "produced anti-SRIF antibodies"}]}
{"substance": "F-W-K-T-S-K-H-W-S-Y-G-L-R-D-G-C (FWKTSKHWSYGLRDGC) [SEQ ID NO:53]", "values": [{"measurement": "grew faster than non-immunised pigs", "setting": "[4]; male pigs immunised three times from 12 weeks, to 24 weeks of age", "value": 12, "unit": "weeks"}, {"measurement": "testicle size relative to non-immunised animals", "setting": "[4]; male pigs, 24 weeks of age", "value": "approximately 50%"}]}
{"substance": "F-W-K-T-S-T-K-T-S-T-K-W-F (FWKTSTKTSTKWF) [SEQ ID NO:5]", "values": [{"measurement": "anti-SRIF antibodies in colostrum and milk of the sow and in blood and gut scrapings of piglets", "setting": "[2]", "value": "produced anti-SRIF antibodies"}]}
{"substance": "LCFWKTC [SEQ ID NO:1]", "values": [{"measurement": "solubility in sterile saline", "setting": "[5]", "value": "relatively soluble"}]}
{"substance": "NMe-Y-D-T-K-V-F-C-S ([NMeY]DTKVFCS) [SEQ ID NO:51]", "values": [{"measurement": "solubility in sterile saline", "setting": "[5]", "value": "very poorly soluble"}, {"measurement": "growth of suckling piglets faster than piglets suckling non-immunised dams", "setting": "[6]", "value": 40, "unit": "%"}]}
{"substance": "SRIF-conjugate: SRIF-conjugate vaccine delivered in the same delivery vehicle as peptide No.1 (SANSNPAMAPRERKAGCKNFFWKTFTSC; ends and bridges not checked; also: SRIF-conjugate vaccine (conjugated, site not given here))", "values": [{"measurement": "average liveweight gain per head during pregnancy", "setting": "[7]; mating to parturition, 345 Kg feed, non-immunised 60", "value": 75, "unit": "kg"}, {"measurement": "liveweight relative to non-immunised sows", "setting": "[7]; weeks 12 and 15 of pregnancy (SRIF: from 9 weeks)", "value": "at no point was this difference ever stastically significant"}, {"measurement": "Farrowing weight", "setting": "[8]; sows", "value": "154 ± 27.68", "unit": "kg"}, {"measurement": "Weaning weight", "setting": "[8]; sows", "value": "166.4 ± 26", "unit": "kg"}, {"measurement": "Weight loss", "setting": "[8]; sows, farrowing to weaning", "value": 7.2}, {"measurement": "mean loss of liveweight of sows", "setting": "[8]; three weeks lactation period, non-immunised 10.8", "value": 12, "unit": "kg"}, {"measurement": "liveweights of the piglets at weaning", "setting": "[9]; 21 days of age", "value": "7.32 ± 1.30", "unit": "kg"}, {"measurement": "Liveweights of the piglets 2 weeks after weaning", "setting": "[9]; 35 days of age", "value": "8.89 ± 1.33", "unit": "kg"}, {"measurement": "mean birthweights of the piglets", "setting": "[9]; born to immunised sows", "value": "1.40 ± 0.29", "unit": "kg"}]}
{"substance": "SRIF/BSA: SRIF 14 (native somatostatin) conjugate presented with the preferred oil [reference compound]", "values": [{"measurement": "absolute growth rates of the piglets", "setting": "[2]", "value": 180, "unit": "g per day"}, {"measurement": "anti-SRIF antibodies in colostrum and milk of the sow and in blood and gut scrapings of piglets", "setting": "[2]", "value": "produced anti-SRIF antibodies"}, {"measurement": "Milk/colostrum IgA anti-SRIF antibodies", "setting": "SRIF; DAY 3", "value": "0.029 ± 0.035", "unit": "OD @ 405 nm"}, {"measurement": "Sow's milk IgG anti-SRIF antibodies", "setting": "SRIF; DAY 3", "value": "1.6 ± 0.22", "unit": "OD @ 405 nm"}, {"measurement": "Gut IgA anti-SRIF antibodies", "setting": "SRIF; DAY 3", "value": "0.189 ± 0.133", "unit": "OD @ 405 nm"}, {"measurement": "Gut IgG anti-SRIF antibodies", "setting": "SRIF; DAY 3", "value": "0.684 ± 0.548", "unit": "OD @ 405 nm"}, {"measurement": "Plasma IgA anti-SRIF antibodies", "setting": "SRIF; DAY 3", "value": "1.067 ± 0.469", "unit": "OD @ 405 nm"}, {"measurement": "Plasma IgG anti-SRIF antibodies", "setting": "SRIF; DAY 3", "value": "1.38 ± 0.44", "unit": "OD @ 405 nm"}, {"measurement": "Gut IgA anti-SRIF antibodies", "setting": "SRIF; DAY 21", "value": "0.037 ± 0.05", "unit": "OD @ 405 nm"}, {"measurement": "Gut IgG anti-SRIF antibodies", "setting": "SRIF; DAY 21", "value": "0.259 ± 0.18", "unit": "OD @ 405 nm"}, {"measurement": "Plasma IgA anti-SRIF antibodies", "setting": "SRIF; DAY 21", "value": "0.798 ± 0.49", "unit": "OD @ 405 nm"}, {"measurement": "Plasma IgG anti-SRIF antibodies", "setting": "SRIF; DAY 21", "value": "1.779 ± 0.13", "unit": "OD @ 405 nm"}]}
